Assay results published in the supplement of paper PMC11451515.

System: P12-Ichikawa
Assay: cell viability relative to DMSO control; higher = less cytotoxic
Conditions: 48 h
Outline: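 Viability was expressed as a per-plate percentage of DMSO wells, with cell-free wells as background. Leukemia cells (NOMO1 or SEM at 500 cells/well, P12-Ichikawa at 1000 cells/well) were adapted for at least four passages in each medium and seeded in 1536-well plates (5 μl). Library compounds in DMSO were pin-dosed over an 11-point threefold series from 47 μM to 0.79 nM, and CellTiter-Glo One luminescence was read after 48 h at 37°C.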

[1] = HPLM + 10% dialyzed FBS, 0.000781 µM
[2] = HPLM + 10% dialyzed FBS, 0.00234 µM
[3] = HPLM + 10% dialyzed FBS, 0.00702 µM
[4] = HPLM + 10% dialyzed FBS, 0.0211 µM
[5] = HPLM + 10% dialyzed FBS, 0.0632 µM
[6] = HPLM + 10% dialyzed FBS, 0.19 µM
[7] = HPLM + 10% dialyzed FBS, 0.569 µM
[8] = HPLM + 10% dialyzed FBS, 1.71 µM
[9] = HPLM + 10% dialyzed FBS, 5.12 µM
[10] = HPLM + 10% dialyzed FBS, 15.4 µM
[11] = HPLM + 10% dialyzed FBS, 46.1 µM
[12] = RPMI 5 mM glucose + 10% FBS, 0.000781 µM
[13] = RPMI 5 mM glucose + 10% FBS, 0.00234 µM
[14] = RPMI 5 mM glucose + 10% FBS, 0.00702 µM
[15] = RPMI 5 mM glucose + 10% FBS, 0.0211 µM
[16] = RPMI 5 mM glucose + 10% FBS, 0.0632 µM
[17] = RPMI 5 mM glucose + 10% FBS, 0.19 µM
[18] = RPMI 5 mM glucose + 10% FBS, 0.569 µM
[19] = RPMI 5 mM glucose + 10% FBS, 1.71 µM
[20] = RPMI 5 mM glucose + 10% FBS, 5.12 µM
[21] = RPMI 5 mM glucose + 10% FBS, 15.4 µM
[22] = RPMI 5 mM glucose + 10% FBS, 46.1 µM
[23] = RPMI 5 mM glucose + 10% dialyzed FBS, 0.000781 µM
[24] = RPMI 5 mM glucose + 10% dialyzed FBS, 0.00234 µM
[25] = RPMI 5 mM glucose + 10% dialyzed FBS, 0.00702 µM
[26] = RPMI 5 mM glucose + 10% dialyzed FBS, 0.0211 µM
[27] = RPMI 5 mM glucose + 10% dialyzed FBS, 0.0632 µM
[28] = RPMI 5 mM glucose + 10% dialyzed FBS, 0.19 µM
[29] = RPMI 5 mM glucose + 10% dialyzed FBS, 0.569 µM
[30] = RPMI 5 mM glucose + 10% dialyzed FBS, 1.71 µM
[31] = RPMI 5 mM glucose + 10% dialyzed FBS, 5.12 µM
[32] = RPMI 5 mM glucose + 10% dialyzed FBS, 15.4 µM
[33] = RPMI 5 mM glucose + 10% dialyzed FBS, 46.1 µM

Compound | cell viability [1] [%] | cell viability [2] [%] | cell viability [3] [%] | cell viability [4] [%] | cell viability [5] [%] | cell viability [6] [%] | cell viability [7] [%] | cell viability [8] [%] | cell viability [9] [%] | cell viability [10] [%] | cell viability [11] [%] | cell viability [12] [%] | cell viability [13] [%] | cell viability [14] [%] | cell viability [15] [%] | cell viability [16] [%] | cell viability [17] [%] | cell viability [18] [%] | cell viability [19] [%] | cell viability [20] [%] | cell viability [21] [%] | cell viability [22] [%] | cell viability [23] [%] | cell viability [24] [%] | cell viability [25] [%] | cell viability [26] [%] | cell viability [27] [%] | cell viability [28] [%] | cell viability [29] [%] | cell viability [30] [%] | cell viability [31] [%] | cell viability [32] [%] | cell viability [33] [%]
O=C1Nc2ccc(Cl)cc2[C@@](C#CC2CC2)(C(F)(F)F)O1 | 81.8 | 91.9 | 90.5 | 90.6 | 90.2 | 91.1 | 91.1 | 92.1 | 96.2 | 95 | 80 | 78.3 | 94.4 | 78.6 | 76.2 | 85.5 | 83.1 | 91.6 | 85 | 84.5 | 85.1 | 55.4 | 73.8 | 77.7 | 80.5 | 88.6 | 80.8 | 85.1 | 78.4 | 77.7 | 79.8 | 79 | 61.8
CCc1c(C(=O)C(N)=O)c2c(OCC(=O)O)cccc2n1Cc1ccccc1 | 105 | 112 | 112 | 105 | 107 | 111 | 106 | 111 | 103 | 107 | 99.5 | 102 | 101 | 102 | 104 | 105 | 98.1 | 96.5 | 99.4 | 94.8 | 93.6 | 95.3 | 99.4 | 107 | 102 | 98.4 | 99.9 | 94.4 | 91.8 | 97.3 | 92.3 | 95.8 | 91.3
NC(=O)c1ncn([C@@H]2O[C@H](CO)[C@@H](O)[C@H]2O)n1 | 122 | 120 | 102 | 109 | 110 | 118 | 116 | 111 | 96.3 | 82 | 76.1 | 116 | 121 | 115 | 123 | 122 | 103 | 112 | 104 | 88.3 | 79.4 | 62.8 | 115 | 107 | 123 | 115 | 120 | 100 | 106 | 105 | 82.4 | 69.3 | 62.5
COC[C@@H](NC(C)=O)C(=O)NCc1ccccc1 | 117 | 101 | 107 | 118 | 118 | 110 | 110 | 111 | 113 | 104 | 12.8 | 94.8 | 100 | 112 | 112 | 113 | 121 | 111 | 110 | 106 | 110 | 53.5 | 105 | 118 | 106 | 110 | 96.9 | 109 | 108 | 116 | 104 | 109 | 59.8
C=CC1=C(C(=O)O)N2C(=O)[C@@H](NC(=O)/C(=N\O)c3csc(N)n3)[C@H]2SC1 | 100 | 115 | 79.3 | 116 | 131 | 122 | 121 | 117 | 125 | 35.2 | 123 | 101 | 112 | 66.1 | 116 | 117 | 123 | 124 | 115 | 119 | 124 | 109 | 99.2 | 118 | 75.5 | 112 | 124 | 117 | 117 | 129 | 115 | 123 | 125
Cc1cc(Nc2nc(N[C@@H](C)c3ncc(F)cn3)ncc2Cl)n[nH]1 | 95.1 | 111 | 109 | 114 | 116 | 119 | 126 | 108 | 70.6 | 55 | 56.9 | 113 | 122 | 116 | 126 | 112 | 112 | 118 | 118 | 115 | 98 | 42.5 | 109 | 110 | 119 | 117 | 121 | 119 | 109 | 118 | 90.8 | 50.6 | 45.2
Oc1ccc(/C=C/c2cc(O)cc(O)c2)cc1 | 111 | 110 | 110 | 114 | 105 | 111 | 115 | 103 | 105 | 108 | 41.4 | 116 | 118 | 116 | 118 | 118 | 112 | 117 | 106 | 111 | 101 | 58.6 | 108 | 111 | 111 | 112 | 113 | 116 | 121 | 108 | 103 | 84.5 | 36.9
OC[C@H]1O[C@H]([C@@H](F)[C@@H]1O)N2\C=C/C(=O)NC2=O | 110 | 108 | 108 | 110 | 108 | 112 | 114 | 102 | 99.6 | 98 | 94.1 | 99 | 108 | 108 | 91.6 | 97.9 | 114 | 106 | 102 | 92.1 | 102 | 106 | 109 | 93.5 | 104 | 100 | 99.4 | 97 | 105 | 96 | 93.6 | 93.5 | 88.6
O=C1C[C@@H](c2ccc(O)cc2)Oc2cc(O)cc(O)c21 | 130 | 119 | 120 | 116 | 119 | 120 | 112 | 110 | 102 | 114 | 121 | 125 | 124 | 119 | 124 | 118 | 129 | 114 | 121 | 107 | 110 | 114 | 120 | 120 | 120 | 122 | 115 | 130 | 120 | 104 | 110 | 110 | 103
C[C@@H]1COCCN1C\2=C\C(=O)N\3CC[C@H](N(CC4=CN=CC(=C4)Cl)C3=N2)C(F)(F)F | 94 | 101 | 98.9 | 94.3 | 97.5 | 103 | 101 | 104 | 85 | 32.7 | 22.5 | 91.4 | 94.1 | 95.7 | 89.2 | 98.3 | 107 | 97.2 | 108 | 76.5 | 40 | 17.5 | 99.4 | 102 | 106 | 98.8 | 107 | 99.6 | 114 | 99.8 | 86 | 30.8 | 17.6
CCn1c(-c2nonc2N)nc2cncc(CNC3CCNCC3)c21 | 122 | 123 | 123 | 123 | 130 | 129 | 117 | 104 | 88.6 | 10.1 | 13.7 | – | – | – | – | – | – | – | – | – | – | – | – | – | – | – | – | – | – | – | – | – | –
CCC[C@H](N[C@@H](C)C(=O)N1[C@H](C(=O)O)C[C@@H]2CCCC[C@@H]21)C(=O)OCC | 110 | 108 | 109 | 113 | 104 | 115 | 112 | 109 | 93.2 | 88.1 | 84.7 | 106 | 103 | 121 | 112 | 117 | 108 | 106 | 97.9 | 77.1 | 79.5 | 71.6 | 124 | 99 | 113 | 111 | 122 | 116 | 103 | 110 | 87.3 | 78.3 | 69.8
Oc1ccc(C2CCN(c3ccnc4ccccc34)CC2)cc1O | 102 | 118 | 111 | 113 | 112 | 117 | 110 | 106 | 70.8 | 67.4 | 63.4 | 112 | 110 | 109 | 125 | 122 | 107 | 113 | 110 | 71.5 | 55.1 | 48.5 | 96.5 | 113 | 106 | 110 | 107 | 112 | 111 | 97.5 | 59.2 | 45.8 | 40.8
[NH2][Pt]([NH2])([Cl])[Cl] | 99.2 | 105 | 95.1 | 90.3 | 102 | 96 | 97.6 | 98.2 | 101 | 98.2 | 105 | 86.2 | 92.8 | 95.6 | 98 | 101 | 101 | 90.7 | 94.3 | 89 | 90.8 | 95.5 | 88.4 | 94.6 | 85.2 | 92 | 91.1 | 95.6 | 92.2 | 87.6 | 98.8 | 88.4 | 85.2
CC(C)n1nc(-c2ccc3oc(N)nc3c2)c2c(N)ncnc21 | 95.5 | 91 | 86.3 | 79.7 | 78 | 75 | 68.7 | 67.2 | 66.7 | 59.9 | 44.5 | 74.4 | 71.5 | 64.1 | 61.5 | 52 | 54.4 | 51 | 46.8 | 41.4 | 37.2 | 31.3 | 82.5 | 78.9 | 67.1 | 59.1 | 61.7 | 53.8 | 45 | 47.3 | 41.5 | 35.6 | 32
